Laboratory results reported in ChEMBL document CHEMBL1155602, “Three new scalarane sesterterpenoids from the Okinawan sponge Hyrtios erectus” (J Nat Prod, 2000).
Values after ≈ are worked out from the molar mass of the structure shown.

System: KB
Assay: Antiproliferative activity against human KB cells
Type: functional, cell-based

IC50: 2.82 mg/L (≈ 7.86 µM)
SMILES: CC1(C)CCC[C@]2(C)[C@H]3C[C@@H](O)[C@]4(C)C=C(C=O)CC[C@H]4[C@]3(C)CC[C@@H]12
